# According to patent US11926612B2, “Heterocyclic apelin receptor (APJ) agonists and uses thereof” (Research Triangle Institute, priority 2016, dated 2024):
# Legend:
# apelin receptor (APJ) = target: T1, apelin receptor (APJ) (Homo sapiens, UniProt P35414); assay: in vitro activity as apelin agonists (methods of Giddings et al.; Apelin-13 positive control); type: cell-based; details: apelin agonist activity, average; read-out: EC50 (nM) Ave
# T1 sequence (P35414 1-380): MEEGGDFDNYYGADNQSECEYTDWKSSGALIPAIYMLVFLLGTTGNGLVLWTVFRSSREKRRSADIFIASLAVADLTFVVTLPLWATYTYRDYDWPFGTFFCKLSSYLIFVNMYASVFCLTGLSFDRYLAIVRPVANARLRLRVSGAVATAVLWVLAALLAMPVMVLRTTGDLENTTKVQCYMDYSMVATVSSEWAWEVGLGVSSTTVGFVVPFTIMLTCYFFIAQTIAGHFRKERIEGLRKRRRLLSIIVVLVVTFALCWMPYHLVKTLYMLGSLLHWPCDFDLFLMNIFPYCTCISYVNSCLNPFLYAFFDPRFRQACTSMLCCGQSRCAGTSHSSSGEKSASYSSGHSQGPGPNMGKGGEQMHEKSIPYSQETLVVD
# Excerpt: The compounds above were studied for their in vitro activity as apelin agonists using the methods described by Giddings et al. Giddings et al., 2010 Int J High Thro Screen. 1:39-47, the contents of which are hereby incorporated by reference in its entirety. The methods described in Giddings et al. were used as described and Apelin-13 was a positive control.
# [1] = Cellular uptake assay: Caco-2 monolayer permeability (A-to-B / B-to-A); type: in vitro ADME; details: human, Papp (B-to-A)/Papp (A-to-B), Caco-2, 5 μM, pH 7.4
# Procedure: Caco-2 cells (clone C2BBe1) were obtained from American Type Culture Collection (Manassas, VA). Cell monolayers were grown to confluence on collagen-coated, microporous, polycarbonate membranes in 12-well Costar Transwell plates. Details of the plates and their certification are shown below. The permeability assay buffer was Hanks' balanced salt solution (HBSS) containing 10 mM HEPES and 15 mM glucose at a pH of 7.4. The buffer in the receiver chamber also contained 1% bovine serum albumin. The dosing solution concentration was 5 μM for each test article in the assay buffer. Cell monolayers were dosed on the apical side (A-to-B) or basolateral side (B-to-A) and incubated at 37° C. with 5% CO2 in a humidified incubator. Samples were taken from the donor and receiver chambers at 120 minutes. Each determination was performed in duplicate. After the experiment, all assay buffers were removed from the inserts. Cell monolayers were dosed with blank 500 μM lucifer yellow on the A-to-B side and blank HBSS on the B-to-A side and incubated at 37° C. Samples were taken from the B-to-A side at 60 minutes. The flux of lucifer yellow was measured for each monolayer to ensure no damage was inflicted to the cell monolayers during the flux period. All samples were analyzed by LC-MS/MS using electrospray ionization. The apparent permeability (Papp) and percent recovery were calculated as follows: Papp=(dCr/dt)×Vr/(A×CA) (1) Percent Recovery=100×((Vr×Cr^final)+(Vd×Cd^final))/(Vd×CN) (2)
# Where, dCr/dt is the slope of the cumulative concentration in the receiver compartment versus time in M s^−1;
# Vr is the volume of the receiver compartment in cm^3;
# Vd is the volume of the donor compartment in cm^3;
# A is the area of the insert (1.13 cm^2 for 12-well Transwell);
# CA is the average of the nominal dosing concentration and the measured 120-minute donor concentration in μM;
# CN is the nominal concentration of the dosing solution in M;
# Cr^final is the cumulative receiver concentration in M at the end of the incubation period;
# Cd^final is the concentration of the donor in μM at the end of the incubation period.
# Efflux ratio (ER) is defined as Papp (B-to-A)/Papp (A-to-B).
# Absorption Potential Classification:
# Papp (A-to-B)<1.0×10^−6 cm/s: Low
# Papp (A-to-B) ≥1.0×10^−6 cm/s: High
# Significant Efflux is defined as: ER≥2.0 and Papp (B-to-A)≥1.0×10^−6 cm/
EC50 (apelin receptor (APJ)),"efflux ratio at 120 min, 5 μM [1]",Compound
46 nM,7,"O=C(O)C[C@H](CCN1CCCC(F)(F)C1)NC(=O)c1nc(C2CCCC2)n(-c2ccccc2C(F)(F)F)n1 [compound 461, (3S)-3-({5-cyclopentyl-1-[2-(trifluoromethyl)phenyl]-1H-1,2,4-triazol-3-yl}formamido)-5-(3,3-difluoropiperidin-1-yl)pentanoic acid]"
15 nM,4,"O=C(C[C@H](CCN1CCCC(F)(F)C1)NC(=O)c1cn(-c2ccccc2C(F)(F)F)c(C2CCCC2)n1)NC1CCC1 [compound 472, (3S)-N-cyclobutyl-3-({2-cyclopentyl-1-[2-(trifluoromethyl)phenyl]-1H-imidazol-4-yl}formamido)-5-(3,3-difluoropiperidin-1-yl)pentanamide]"
7.5 nM,46,"O=C(C[C@H](CCN1CCCC(F)(F)C1)NC(=O)c1nc(-c2ncccc2C(F)(F)F)n(C2CCCC2)n1)NC1CCC1 [compound 530, (3S)-N-cyclobutyl-3-({1-cyclopentyl-5-[3-(trifluoromethyl)pyridin-2-yl]-1H-1,2,4-triazol-3-yl}formamido)-5-(3,3-difluoropiperidin-1-yl)pentanamide]"
9 nM,17,"O=C(N[C@@H](CCN1CCCC(F)(F)C1)Cc1nnn[nH]1)c1nc(C2CCCC2)n(-c2ccccc2C(F)(F)F)n1 [compound 616, 5-cyclopentyl-N-[(2S)-4-(3,3-difluoropiperidin-1-yl)-1-(1H-1,2,3,4-tetrazol-5-yl)butan-2-yl]-1-[2-(trifluoromethyl)phenyl]-1H-1,2,4-triazole-3-carboxamide]"
